Columns and labels:
A549 cells = assay: Cell viability assay (CellTiter-Blue); assay type: cell-based, human; conditions: up to 5 μM, 72 h incubation
Protocol: 5 × 10^3 A549 cells were seeded into 96-well plates. The following day, the indicated final concentrations of JYQ-164 and JYQ-173 were added to the cells, and DMSO was used as a control. Inhibitors were renewed at 36 h, and cells were incubated with them an additional 36 h. Cell viability was measured using the CellTiter-Blue viability assay (Promega). Relative survival was normalized to the DMSO-treated sample and corrected for background signal. page 8: Figure S6. Cytotoxicity assay for JYQ-164 and JYQ-173 in A549 cells. ( A) PARK7 engagement of JYQ -164 and JYQ-173 in A459 cells. A549 cells were incubated with […] The reactions were stopped by addition of NuPAGE™ LDS sample buffer (4x) , followed by cell lysis, SDS-PAGE, fluorescence scanning, and immunoblott in g against PARK7 and β-actin. β-actin was used as a loading control. (B) A549 cells were incubated with indicated concentration of JYQ-164 (left panel) or JYQ-173 (right panel) for 72 h where the inhibitors were renewed after 36 h. Cell viability was measured using the CellTiter-Blue assay. Relative viability was normalized to untreated control and corrected for background signal. S8 (1 picture or pasted object on this page, not shown here)

[1] = test system: other proteins of A549 cells; assay: TMT-based global proteomic profiling in A549 cells, other proteins; assay type: cell-based, Homo sapiens; conditions: A549 cells, 5 μM, 8 h
Protocol: A549 cells were seeded into 10 cm plates in 10 mL of media. […] Cells were lysed using a 5% SDS lysis buffer (100 mM Tris-HCl, pH 7.6) and were incubated at 95 °C for 4 min. Protein determination was performed using the Pierce BCA Gold protein assay. 100 μg of protein of each sample was reduced and alkylated, and excess iodoacetamide was quenched using 5 mM TCEP, 15 mM iodoacetamide, and 10 mM DTT, respectively. The protein was pelleted down using chloroform/methanol precipitation, and the resulting pellets were resolubilized in 40 mM HEPES pH 8.4. […] The Pierce BCA Gold protein assay was used to determine the peptide concentration. The peptides were labeled with TMTpro Label Reagents in a 1:4 ratio by mass (peptides/TMT reagents) for 1 h at RT. Five μL of 6% hydroxylamine was added to quench excess TMT reagent and incubated for 15 min at RT. Samples were pooled and lyophilized. The sample was subsequently fractionated on an Agilent 1200 series HPLC system (Agilent Technologies). 75 μg of the pooled sample was dissolved in solvent A (10 mM NH4HCO3, pH 8.4), injected onto, and eluted from an Agilent Eclipse Plus C18 2.1 × 150 mm 3.5 μm column (Agilent Technologies). The gradient was run from 2 to 90% solvent B (10 mM NH4HCO3, pH 8.4 final concentration, 20/80 water/acetonitrile v/v) in 30 min at a flow rate of 200 μL/min. Twelve fractions were made; every 30 s a fraction was collected in a vial, and the eluate of the next 30 s was collected in the next vial and so on until it loops back to the first vial (5 loops of 6 min each). Afterward, the samples were lyophilized.
2.2.07 (www.matrixscience.com) for protein identification. Mascot searches were with 10 ppm and 0.02 Da deviation for precursor and fragment mass, respectively. Enzyme specificity was set to trypsin. Up to two missed cleavages were allowed. Methionine oxidation and acetyl on protein N-terminus were set as variable modifications. Carbamidomethyl on Cys and TMTpro on Lys and N-terminus were set as fixed modifications. Protein FDR of 1% was set. Normalization was on total peptide amount. The values for each TMT channel were normalized to the average of the values for the DMSO samples for the same peptide, and these values were named FC. The log2 FC values of all replicates for the same master protein were averaged to give the “Average log2 FC”. A one-sample t test was performed against the null hypothesis of log2 FC = 0, and the resulting −log10p values were reported for each protein. The volcano plot was plotted using GraphPad Prism v.9.01.

Question: Which results are given for `N#CN1CC[C@@H](C(=O)Nc2nc3c(s2)CN(C(=O)c2cc(-n4ccnn4)ccc2F)CC3)C1` [Compound 84, (R)-1-Cyano-N-(5-(2-fluoro-5-(1H-1,2,3-triazol-1-yl)benzoyl)-4,5,6,7-tetrahydrothiazolo[5,4-c]pyridin-2-yl)pyrrolidine-3-carboxamide]?
Answer: cytotoxicity (A549 cells): did not show any cytotoxicity; DOP1B protein level (total proteome profiling) [1]: downregulated
